Measured values published in PubChem BioAssay (NCI).
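In this assay, cells in 96-well plates receive the compound at five concentrations for 48 hours. Endpoints are linearly interpolated between the surrounding concentrations. Abbreviation: GI50, concentration required for 50% inhibition of growth. At the TGI there is no net growth.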

Key:
Assay in all cases: NCI tumour cell line growth inhibition, 48 h
[1] = system: IGROV1 ovarian
[2] = system: HCT-116 colon
[3] = system: RPMI-8226 leukemia
[4] = system: KM12 colon
[5] = system: SW-620 colon
[6] = system: OVCAR-3 ovarian
[7] = system: 786-0 renal
[8] = system: OVCAR-8 ovarian
[9] = system: NCI-H23 lung
[10] = system: HCT-15 colon
[11] = system: COLO 205 colon
[12] = system: SNB-19 CNS
[13] = system: SR leukemia
[14] = system: CCRF-CEM leukemia
[15] = system: SK-MEL-2 melanoma
[16] = system: SNB-75 CNS
[17] = system: A498 renal
[18] = system: UO-31 renal
[19] = system: SN12C renal
[20] = system: HL-60(TB) leukemia
[21] = system: MDA-MB-231 breast
[22] = system: ACHN renal
[23] = system: RXF 393 renal
[24] = system: UACC-62 melanoma
[25] = system: OVCAR-5 ovarian
[26] = system: TK-10 renal
[27] = system: SF-268 CNS
[28] = system: SK-OV-3 ovarian
[29] = system: MCF7 breast
[30] = system: OVCAR-4 ovarian
[31] = system: LOX IMVI melanoma
[32] = system: HOP-62 NSCLC
[33] = system: NCI/ADR-RES ovarian
[34] = system: NCI-H522 lung
[35] = system: T-47D breast
[36] = system: MDA-MB-435
[37] = system: CAKI-1 renal
[38] = system: SF-539 CNS
[39] = system: A549 NSCLC
[40] = system: M14 melanoma
[41] = system: SK-MEL-28 melanoma
[42] = system: PC-3 prostate
[43] = system: HS 578T breast
[44] = system: NCI-H460 lung
[45] = system: UACC-257 melanoma
[46] = system: SK-MEL-5 melanoma
[47] = system: DU-145 prostate
[48] = system: BT-549 breast
[49] = system: SF-295 CNS
[50] = system: NCI-H226 lung
[51] = system: MOLT-4 leukemia
[52] = system: HOP-92 NSCLC
[53] = system: HCC-2998 colon
[54] = system: U251 CNS

C/C(=C\CCc1ccoc1)CC/C=C(\C)CCCN1CCOCC1
GI50 [1]: 15.4 µM | TGI [1]: 36.8 µM | GI50 [2]: 2.27 µM | TGI [2]: 10.2 µM | GI50 [3]: 1.88 µM | TGI [3]: 4.99 µM | GI50 [4]: 4.11 µM | TGI [4]: 16.1 µM | GI50 [5]: 3.43 µM | TGI [5]: 14.6 µM | GI50 [6]: 3.73 µM | TGI [6]: 15.3 µM | GI50 [7]: 1.83 µM | TGI [7]: 4.18 µM | GI50 [8]: 13.7 µM | TGI [8]: 28 µM | GI50 [9]: 6.03 µM | TGI [9]: 21 µM | GI50 [10]: 2.98 µM | TGI [10]: 11.8 µM | GI50 [11]: 3.15 µM | TGI [11]: 12.4 µM | GI50 [12]: 9.27 µM | TGI [12]: 23.6 µM | GI50 [13]: 3.12 µM | TGI [13]: 9.69 µM | GI50 [14]: 2.79 µM | TGI [14]: 11 µM | GI50 [15]: 12.2 µM | TGI [15]: 25.9 µM | GI50 [16]: 3.15 µM | TGI [16]: 16.3 µM | GI50 [17]: 4.48 µM | TGI [17]: 19.7 µM | GI50 [18]: 10.3 µM | TGI [18]: 24.6 µM | GI50 [19]: 6.83 µM | TGI [19]: 21 µM | GI50 [20]: 2.5 µM | TGI [20]: 5.5 µM | GI50 [21]: 2.9 µM | TGI [21]: 12.2 µM | GI50 [22]: 8.24 µM | TGI [22]: 24.1 µM | GI50 [23]: 9.17 µM | TGI [23]: 23.2 µM | GI50 [24]: 5.02 µM | TGI [24]: 18.2 µM | GI50 [25]: 7.17 µM | TGI [25]: 21.3 µM | GI50 [26]: 11 µM | TGI [26]: 23.8 µM | GI50 [27]: 7.03 µM | TGI [27]: 21.7 µM | GI50 [28]: 7.06 µM | TGI [28]: 19.7 µM | GI50 [29]: 2.71 µM | TGI [29]: 11.2 µM | GI50 [30]: 3.21 µM | TGI [30]: 14.3 µM | GI50 [31]: 6.91 µM | TGI [31]: 20.7 µM | GI50 [32]: 12.2 µM | TGI [32]: 25.6 µM | GI50 [33]: 12.3 µM | TGI [33]: 27.5 µM | GI50 [34]: 10.9 µM | TGI [34]: 26.8 µM | GI50 [35]: 3.62 µM | TGI [35]: 13.1 µM | GI50 [36]: 3.48 µM | TGI [36]: 13.7 µM | GI50 [37]: 3.65 µM | TGI [37]: 14.9 µM | GI50 [38]: 5.49 µM | TGI [38]: 19.7 µM | GI50 [39]: 9.08 µM | TGI [39]: 23.2 µM | GI50 [40]: 1.65 µM | TGI [40]: 3.42 µM | GI50 [41]: 10.3 µM | TGI [41]: 24 µM | GI50 [42]: 2.02 µM | TGI [42]: 10.5 µM | GI50 [43]: 4.07 µM | TGI [43]: 24.7 µM | GI50 [44]: 4.79 µM | TGI [44]: 17.8 µM | GI50 [45]: 9.17 µM | TGI [45]: 21.2 µM | GI50 [46]: 1.7 µM | TGI [46]: 3.52 µM | GI50 [47]: 10.3 µM | TGI [47]: 22.3 µM | GI50 [48]: 1.88 µM | TGI [48]: 8.74 µM | GI50 [49]: 3.95 µM | TGI [49]: 16.1 µM | GI50 [50]: 10.5 µM | TGI [50]: 30.7 µM | GI50 [51]: 4.2 µM | TGI [51]: 16.9 µM | GI50 [52]: 1.43 µM | TGI [52]: 5.49 µM | GI50 [53]: 10.9 µM | TGI [53]: 23.8 µM | GI50 [54]: 6.29 µM | TGI [54]: 19.1 µM
